Here are results for 29 molecules from ChEMBL document CHEMBL3392979, “Discovery and SAR study of c-Met kinase inhibitors bearing an 3-amino-benzo[d]isoxazole or 3-aminoindazole scaffold” (Bioorg Med Chem, 2015).

A short description of assay [1]: Antiproliferative activity against human EBC1 cells after 72 hrs. Particulars: EBC-1, 72 h.
Assay [2] addresses T1, Hepatocyte growth factor receptor (Homo sapiens, UniProt P08581). Kind of assay: Inhibition of purified recombinant c-MET (unknown origin) using poly (Glu, Tyr) substrate after 60 mins by ELISA.
Assay [3] concerns the target T2, Vascular endothelial growth factor receptor 2 (Homo sapiens, UniProt P35968). As to the kind of experiment: Inhibition of purified VEGFR2 (unknown origin) after 60 mins by ELISA. In general terms: In an ELISA, binding on a coated surface is turned into a signal by an enzyme label.
Assay [4] addresses T1, Hepatocyte growth factor receptor. As to the kind of experiment: Inhibition of purified c-MET (unknown origin) at 1 uM after 60 mins by ELISA.
The target in assay [5] is Fibroblast growth factor receptor 1 (Homo sapiens) (UniProt P11362). Kind of assay: Inhibition of purified FGFR1 (unknown origin) at 1 uM after 60 mins by ELISA.
The target in assay [6] is T2, Vascular endothelial growth factor receptor 2. As to the kind of experiment: Inhibition of purified VEGFR2 (unknown origin) at 1 uM after 60 mins by ELISA.
Assay [7] concerns the target Vascular endothelial growth factor receptor 1 (Homo sapiens) (UniProt P17948). Kind of assay: Inhibition of purified Flt1 (unknown origin) at 1 uM after 60 mins by ELISA.
In assay [8] the target is ALK tyrosine kinase receptor (Homo sapiens) (UniProt Q9UM73). As to the kind of experiment: Inhibition of purified ALK (unknown origin) at 1 uM after 60 mins by ELISA.
Assay [9] addresses Platelet-derived growth factor receptor alpha (Homo sapiens) (UniProt P16234). Kind of assay: Inhibition of purified PDGFRalpha (unknown origin) at 1 uM after 60 mins by ELISA.
Assay [10] concerns the target Platelet-derived growth factor receptor beta (Homo sapiens) (UniProt P09619). Kind of assay: Inhibition of purified PDGFRbeta (unknown origin) at 1 uM after 60 mins by ELISA.
Assay [11] addresses Proto-oncogene tyrosine-protein kinase receptor Ret (Homo sapiens) (UniProt P07949). Kind of assay: Inhibition of purified RET (unknown origin) at 1 uM after 60 mins by ELISA.
Assay [12] concerns the target Epidermal growth factor receptor (Homo sapiens) (UniProt P00533). As to the kind of experiment: Inhibition of purified EGFR (unknown origin) at 1 uM after 60 mins by ELISA.
Assay [13] has as its target Receptor tyrosine-protein kinase erbB-2 (Homo sapiens) (UniProt P04626). Kind of assay: Inhibition of purified ErbB2 (unknown origin) at 1 uM after 60 mins by ELISA.
For assay [14], the target named is Receptor tyrosine-protein kinase erbB-4 (Homo sapiens) (UniProt Q15303). As to the kind of experiment: Inhibition of purified ErbB4 (unknown origin) at 1 uM after 60 mins by ELISA.
Assay [15] deals with Proto-oncogene tyrosine-protein kinase Src (Homo sapiens) (UniProt P12931). Kind of assay: Inhibition of purified c-Src (unknown origin) at 1 uM after 60 mins by ELISA.
The target of assay [16] is Tyrosine-protein kinase ABL1 (Homo sapiens) (UniProt P00519). Kind of assay: Inhibition of purified ABL (unknown origin) at 1 uM after 60 mins by ELISA.
Assay [17] deals with Ephrin type-A receptor 2 (Homo sapiens) (UniProt P29317). Kind of assay: Inhibition of purified EPH-A2 (unknown origin) at 1 uM after 60 mins by ELISA.
In assay [18] the target is Insulin-like growth factor 1 receptor (Homo sapiens) (UniProt P08069). As to the kind of experiment: Inhibition of purified IGF1R (unknown origin) at 1 uM after 60 mins by ELISA.
Assay [19] deals with T1, Hepatocyte growth factor receptor. Kind of assay: Inhibition of purified c-MET (unknown origin) at 0.1 uM after 60 mins by ELISA.
Assay [20] has as its target T2, Vascular endothelial growth factor receptor 2. As to the kind of experiment: Inhibition of purified VEGFR2 (unknown origin) at 0.1 uM after 60 mins by ELISA.
The target in assay [21] is ALK tyrosine kinase receptor (Homo sapiens) (UniProt Q9UM73). As to the kind of experiment: Inhibition of purified ALK (unknown origin) at 0.1 uM after 60 mins by ELISA.
For assay [22], the target named is T1, Hepatocyte growth factor receptor. Kind of assay: Inhibition of purified c-MET (unknown origin) at 0.01 uM after 60 mins by ELISA.
In assay [23] the target is T2, Vascular endothelial growth factor receptor 2. Kind of assay: Inhibition of purified VEGFR2 (unknown origin) at 0.01 uM after 60 mins by ELISA.

For the molecule `Nc1n[nH]c2cccc(-c3ccc(NC(=O)C4(C(=O)Nc5ccc(Cl)cc5)CC4)cc3F)c12`, in [1], the IC50 (as a rule, the concentration that inhibits the measured activity by half) was determined as 0.99 µM.

For the molecule `Cn1nccc1-c1ccc(NC(=O)C2(C(=O)Nc3ccc(-c4cccc5onc(N)c45)cc3)CC2)cc1`, in [2], the IC50 is greater than 1 µM.

With `Nc1noc2cccc(-c3ccc(NC(=O)C4(C(=O)Nc5ccc(F)c(F)c5)CC4)cc3)c12`, the half-maximal inhibitory concentration (IC50) in assay [1] was greater than 10 µM.

For `Nc1noc2cccc(-c3ccc(NC(=O)C4(C(=O)Nc5ccc(F)cc5)CC4)cc3)c12`, the concentration for half-maximal inhibition (IC50) in assay [1] was 1.2 µM; in assay [3], greater than 1 µM.

Molecule `Nc1noc2cccc(-c3ccc(NC(=O)C4(C(=O)Nc5ccc(F)cc5)CC4)cc3F)c12` came in with an IC50 in assay [1] of 0.9 µM.

Molecule `Cc1cc(NC(=O)C2(C(=O)Nc3ccc(F)cc3)CC2)ccc1-c1cccc2[nH]nc(N)c12` yielded a concentration for half-maximal inhibition (IC50) in [1] of 1 µM.

On to `CN(C)Cc1cc(NC(=O)C2(C(=O)Nc3ccc(F)cc3)CC2)ccc1-c1cccc2[nH]nc(N)c12`, for which, in assay [2], the IC50 is greater than 1 µM.

Regarding `COc1cc(NC(=O)C2(C(=O)Nc3ccc(-c4cccc5onc(N)c45)cc3)CC2)cc(OC)c1OC`, the concentration for half-maximal inhibition (IC50) in [2] was greater than 1 µM.

As for `Nc1noc2cccc(-c3ccc(NC(=O)C4(C(=O)Nc5ccc(-c6cnn(C7CCNCC7)c6)cc5)CC4)cc3)c12`, in [2], the half-maximal inhibitory concentration (IC50) was greater than 1 µM.

Consider `Nc1noc2cccc(-c3ccc(NC(=O)C4(C(=O)Nc5cccc(F)c5)CC4)cc3)c12`, for which the IC50 in assay [2] was greater than 1 µM.

As to `CC(=O)c1ccc(-c2ccc(NC(=O)C3(C(=O)Nc4ccc(-c5cccc6onc(N)c56)cc4)CC3)cc2)s1`, in [2], the concentration for half-maximal inhibition (IC50) was greater than 1 µM.

In turn, `Nc1noc2cccc(-c3ccc(NC(=O)C4(C(=O)Nc5ccc(F)cc5F)CC4)cc3)c12` had an IC50 in [1] greater than 10 µM.

Consider `Cc1ccc(NC(=O)C2(C(=O)Nc3ccc(-c4cccc5onc(N)c45)cc3)CC2)cc1`, for which inhibition in assay [1] was half-maximal at 6.3 µM (IC50).

Take `CC(C)(C(=O)Nc1ccc(F)cc1)C(=O)Nc1ccc(-c2cccc3onc(N)c23)cc1`: the half-maximal inhibitory concentration (IC50) in assay [2] is greater than 1 µM.

For the molecule `Cn1cc(-c2ccc(NC(=O)C3(C(=O)Nc4ccc(-c5cccc6onc(N)c56)cc4)CC3)cc2)cn1`, the half-maximal inhibitory concentration (IC50) in [2] is greater than 1 µM.

As to `CN1CCN(c2ccc(NC(=O)C3(C(=O)Nc4ccc(-c5cccc6onc(N)c56)cc4)CC3)cc2F)CC1`, in [2], the IC50 is greater than 1 µM.

For the molecule `Nc1n[nH]c2cccc(-c3ccc(NC(=O)C4(C(=O)Nc5ccc(F)cc5)CC4)cc3)c12`, the IC50 in [1] was 0.82 µM.

In [1], `CN1CCN(Cc2cc(NC(=O)C3(C(=O)Nc4ccc(-c5cccc6[nH]nc(N)c56)cc4)CC3)ccc2Cl)CC1` yielded an IC50 greater than 10 µM.

`C[C@@H](Oc1cc(-c2cnn(C3CCNCC3)c2)cnc1N)c1c(Cl)ccc(F)c1Cl` [CRIZOTINIB] had a 50% inhibitory concentration (IC50) in assay [1] of 0.021 µM.

As for `Nc1n[nH]c2cccc(-c3ccc(NC(=O)C4(C(=O)Nc5ccc(F)cc5)CC4)c(F)c3)c12`, the IC50 in assay [1] turned out to be 0.51 µM.

`Nc1noc2cccc(-c3ccc(NC(=O)C4(C(=O)Nc5ccc(-c6cnn(C7CCOCC7)c6)cc5)CC4)cc3)c12`: the IC50 in assay [2] is greater than 1 µM.

Molecule `Cc1ccc(NC(=O)C2(C(=O)Nc3ccc(-c4cccc5[nH]nc(N)c45)c(F)c3)CC2)cc1` yielded an IC50 in [1] of 0.91 µM.

On to `CC(C)C(C(=O)Nc1ccc(F)cc1)C(=O)Nc1ccc(-c2cccc3onc(N)c23)cc1` (stereo unspecified), for which, in assay [2], the IC50 is greater than 1 µM.

As to `Nc1noc2cccc(-c3ccc(NC(=O)C4(C(=O)Nc5ccc(Cl)cc5)CC4)cc3)c12`, the IC50 in [1] was 6.7 µM.

On to `COc1cc(NC(=O)C2(C(=O)Nc3ccc(F)cc3)CC2)ccc1-c1cccc2[nH]nc(N)c12`, for which, in assay [2], the IC50 was greater than 1 µM.

In the case of `Nc1n[nH]c2cccc(-c3ccc(NC(=O)C4(C(=O)Nc5ccc(F)cc5)CC4)cc3F)c12`, the IC50 in assay [2] turned out to be 0.0018 µM; in assay [1], 0.18 µM. For the same molecule, the inhibition (commonly the share of the control response that was lost under treatment) was 100% in assay [4]; 21.5% in assay [5]; 100% in assay [6]; 40.8% in assay [7]; 64.9% in assay [8]; 62.5% in assay [9]. Besides, the inhibition in assay [10] worked out at 59.3%; in [11], 66.1%; in assay [12] it was 2.5%; in assay [13] it was 0%; in assay [14] it was 3%; in assay [15] it was 11.8%. The inhibition amounted to 9.8% in assay [16]; 38.4% in assay [17]; 45.3% in assay [18]; 100% in [19]; 89.9% in assay [20]; 36.2% in assay [21]. Moreover, the inhibition is 69.7% in assay [22] and 45.8% in assay [23].

On to `Nc1n[nH]c2cccc(-c3ccc(NC(=O)C4(C(=O)Nc5ccc(F)cc5)CC4)c4ccccc34)c12`, for which, in assay [2], the half-inhibitory concentration (IC50) is greater than 1 µM.

`Nc1noc2cccc(-c3ccc(NC(=O)CC(=O)Nc4ccc(F)cc4)cc3)c12` came in with an IC50 in assay [1] greater than 10 µM.

Turning to `Nc1n[nH]c2cccc(-c3ccc(NC(=O)C4(C(=O)Nc5ccc(F)cc5F)CC4)cc3)c12`, in assay [1], the midpoint of inhibition, the IC50, lay at 0.99 µM.
